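Five concentrations, 48 hours, 96-well plates. TGI: concentration producing complete growth inhibition.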
Tests used:
Experiment in all cases: growth of human tumour cells (NCI), 48 h
[1] = system: CAKI-1 renal
[2] = system: COLO 205 colon
[3] = system: HL-60(TB) leukemia
[4] = system: HT29 colon
[5] = system: LOX IMVI melanoma
[6] = system: MOLT-4 leukemia
[7] = system: NCI-H226 lung
[8] = system: OVCAR-4 ovarian
[9] = system: OVCAR-5 ovarian
[10] = system: RXF 393 renal
[11] = system: SF-268 CNS
[12] = system: SF-539 CNS
[13] = system: SK-MEL-2 melanoma
[14] = system: SK-OV-3 ovarian
[15] = system: SNB-75 CNS
[16] = system: SW-620 colon
[17] = system: TK-10 renal
[18] = system: U251 CNS
[19] = system: NCI/ADR-RES ovarian
[20] = system: HS 578T breast

SMILES	TGI [1]	TGI [2]	TGI [3]	TGI [4]	TGI [5]	TGI [6]	TGI [7]	TGI [8]	TGI [9]	TGI [10]	TGI [11]	TGI [12]	TGI [13]	TGI [14]	TGI [15]	TGI [16]	TGI [17]	TGI [18]	TGI [19]	TGI [20]
C=C[C@]1(C)CCC2=C(CCC3C2(C)CCC[C@@]3(C)COC(C)=O)C1 (some centres not stated)	37.6 µM	30 µM	36.4 µM	33.9 µM	33.8 µM	30.3 µM	34.6 µM	> 100 µM	32.8 µM	37.8 µM	40 µM	37.9 µM	29 µM	33 µM	36.7 µM	35.5 µM	59 µM	31.7 µM	–	–
CSC12c3cc(C)n(-c4ccccc4)c3CC(C)(C)CN1C(=O)C2Oc1ccccc1 (configuration not stated)	> 100 µM	> 100 µM	–	–	> 100 µM	> 100 µM	> 100 µM	> 100 µM	> 100 µM	> 100 µM	–	> 100 µM	> 100 µM	–	> 100 µM	> 100 µM	–	> 100 µM	> 100 µM	–
COc1ccc(C(=O)/C=C/c2ccc(OCCSCCCCCCCCCCSCCOc3ccc(/C=C/C(=O)c4ccc(OC)c(OC)c4)cc3)cc2)cc1OC	> 100 µM	> 100 µM	> 100 µM	> 100 µM	> 100 µM	> 100 µM	–	–	–	–	> 100 µM	> 100 µM	–	> 100 µM	> 100 µM	> 100 µM	> 100 µM	–	–	> 100 µM
O=C(OCc1ccccc1)N(CCCCN(CCCNCc1ccccc1)C(=O)OCc1ccccc1)CCCNCc1ccccc1	2.93 µM	0.33 µM	0.507 µM	0.663 µM	–	–	2.07 µM	–	2.83 µM	–	–	–	2.27 µM	> 100 µM	2.69 µM	0.39 µM	3.43 µM	–	3.43 µM	–
CC1C(OC2O[C@@H]3O[C@@]4(C)CC[C@H]5[C@H](C)CC[C@@H](C2C)[C@@]35O4)O[C@@H]2O[C@@]3(C)CC[C@H]4[C@H](C)CC[C@@H]1[C@@]24O3 (some centres not stated)	> 50 µM	> 50 µM	> 50 µM	> 50 µM	> 50 µM	> 50 µM	> 50 µM	> 50 µM	> 50 µM	–	> 50 µM	> 50 µM	> 50 µM	> 50 µM	> 50 µM	> 50 µM	> 50 µM	> 50 µM	–	> 50 µM
Nc1cc(=O)n(-c2ccccc2)c(=S)n1-c1ccccc1	> 100 µM	> 100 µM	–	> 100 µM	> 100 µM	> 100 µM	> 100 µM	–	> 100 µM	> 100 µM	> 100 µM	> 100 µM	> 100 µM	> 100 µM	> 100 µM	> 100 µM	> 100 µM	> 100 µM	–	–
CN1CN(c2ccccc2)C2(CCN(CCC3COc4ccccc4O3)CC2)C1=O (configuration not stated)	77.5 µM	34.2 µM	45.8 µM	19.6 µM	50.4 µM	70.1 µM	85.1 µM	–	45.9 µM	> 100 µM	> 100 µM	38 µM	–	71.1 µM	> 100 µM	> 100 µM	48.2 µM	66.5 µM	49.6 µM	–
O=C(NCCNCCCNC(=O)c1cc(-c2ccccc2)nc2ccccc12)c1cccc(OCc2ccccc2)c1OCc1ccccc1	3.01 µM	3.11 µM	3.19 µM	2.98 µM	2.95 µM	3.51 µM	3.35 µM	3.03 µM	3.37 µM	–	–	3.19 µM	–	3.1 µM	3.39 µM	3.35 µM	3.17 µM	–	3.51 µM	–
O=Cc1ccc(CCl)cc1	–	> 100 µM	23.9 µM	34.2 µM	28 µM	> 100 µM	–	–	38.8 µM	31 µM	66.9 µM	31.6 µM	32.2 µM	51.7 µM	–	52.1 µM	45.5 µM	35.4 µM	–	–
CC(=O)NC(Cc1ccsc1)C(=O)O (configuration not stated)	> 100 µM	> 100 µM	> 100 µM	> 100 µM	> 100 µM	> 100 µM	> 100 µM	> 100 µM	> 100 µM	> 100 µM	> 100 µM	> 100 µM	> 100 µM	> 100 µM	> 100 µM	> 100 µM	–	> 100 µM	> 100 µM	–
O=C(Nc1cccc2c1[nH]c1c(-c3ccccc3)nccc12)c1ccccc1[N+](=O)[O-]	70.4 µM	> 100 µM	> 100 µM	> 100 µM	> 100 µM	> 100 µM	9.7 µM	> 100 µM	63.2 µM	90.2 µM	> 100 µM	97 µM	> 100 µM	–	> 100 µM	> 100 µM	> 100 µM	> 100 µM	–	–
COP(=O)(OC)C(O)CC(C)C (configuration not stated)	> 100 µM	> 100 µM	> 100 µM	> 100 µM	–	> 100 µM	> 100 µM	> 100 µM	> 100 µM	> 100 µM	–	–	> 100 µM	> 100 µM	> 100 µM	> 100 µM	> 100 µM	> 100 µM	–	–
Brc1ccc2c(c1)-c1nc3nc4c(cc3cc1CC2)CCc1ccc(Br)cc1-4	> 100 µM	> 100 µM	–	–	> 100 µM	> 100 µM	> 100 µM	> 100 µM	> 100 µM	> 100 µM	> 100 µM	> 100 µM	> 100 µM	> 100 µM	> 100 µM	> 100 µM	> 100 µM	> 100 µM	> 100 µM	–
O=C1CSC(c2c[nH]c3ccccc23)N1c1ccccc1[N+](=O)[O-] (configuration not stated)	–	> 100 µM	> 100 µM	> 100 µM	> 100 µM	> 100 µM	–	> 100 µM	> 100 µM	–	> 100 µM	> 100 µM	–	> 100 µM	–	> 100 µM	> 100 µM	> 100 µM	–	–

— PubChem BioAssay (NCI)
